How the values were obtained:
[1] = biological target: T1, Serine/threonine-protein kinase Sgk1 (Homo sapiens, UniProt O00141); test: Inhibition of recombinant human SGK1 expressed in baculovirus expression system using 5-carboxyfluorescein -RPRAATF-NH2 as substrate preincubated for 30 mins followed by substrate addition in presence of 10 uM ATP and measured after 60 mins by microfluidics assay
T1 sequence (O00141 whole entry): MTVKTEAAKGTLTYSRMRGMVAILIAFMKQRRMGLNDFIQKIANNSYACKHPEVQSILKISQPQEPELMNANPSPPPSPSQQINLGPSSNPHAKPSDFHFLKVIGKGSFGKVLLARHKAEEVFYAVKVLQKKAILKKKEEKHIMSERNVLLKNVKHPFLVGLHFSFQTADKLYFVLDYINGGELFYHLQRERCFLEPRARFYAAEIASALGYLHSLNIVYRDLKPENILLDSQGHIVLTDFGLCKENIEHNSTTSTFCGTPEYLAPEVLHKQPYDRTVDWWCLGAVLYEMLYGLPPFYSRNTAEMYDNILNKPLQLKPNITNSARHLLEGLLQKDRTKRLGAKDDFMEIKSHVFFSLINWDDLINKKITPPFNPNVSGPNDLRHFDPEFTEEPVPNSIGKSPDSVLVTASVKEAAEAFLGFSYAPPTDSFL

[2] = biological target: T1, Serine/threonine-protein kinase Sgk1; test: Inhibition of recombinant human SGK1 expressed in baculovirus expression system using 5-carboxyfluorescein -RPRAATF-NH2 as substrate preincubated for 30 mins followed by substrate addition in presence of 500 uM ATP and measured after 60 mins by microfluidics assay
[3] = Photostability of compound; format: physicochemical

| IC50 [1] [nM] | IC50 [2] [nM] | Stability [3] [%] | Compound |
| --- | --- | --- | --- |
| < 1 | 24 | – | CN(CCO)C(=O)c1cc(-c2ccc(NS(=O)(=O)c3cccc(Cl)c3Cl)cc2)nc2[nH]ncc12 |
| 55 | 265 | – | Cc1n[nH]c2nc(-c3ccc(NS(=O)(=O)c4cc(Cl)ccc4F)cc3)nc(OC3CCN(CC(F)(F)F)CC3)c12 |
| 4 | 11 | – | Cc1n[nH]c2nc(-c3ccc(NS(=O)(=O)c4cc(Cl)ccc4F)cc3)nc(Oc3ccc(N)nc3)c12 |
| – | 633 | – | CN(C)CCCNC(=O)c1cc(-c2ccc(NS(=O)(=O)c3cccc(Cl)c3Cl)cc2)nc2[nH]ncc12 |
| 3 | 5 | – | COCCN1CCC(Oc2nc(-c3ccc(NS(=O)(=O)c4cc(Cl)ccc4F)cc3)nc3[nH]nc(C)c23)CC1 |
| 109 | 1270 | – | O=C(NCc1nncs1)c1cc(-c2ccc(NS(=O)(=O)c3cccc(Cl)c3Cl)cc2)nc2[nH]ncc12 |
| 1 | 1 | – | Cc1n[nH]c2nc(-c3ccc(NS(=O)(=O)c4cc(Cl)ccc4F)cc3)nc(OC3CCNCC3(F)F)c12 (centres undefined) |
| 6 | 610 | – | O=C(NC1CCN(C2CC2)C1)c1cc(-c2ccc(NS(=O)(=O)c3cccc(Cl)c3Cl)cc2)nc2[nH]ncc12 (racemic) |
| – | – | 10.1 | Nc1n[nH]c2nc(-c3ccc(NS(=O)(=O)c4cccc(Cl)c4Cl)cc3)ccc12 |
| 1 | 107 | – | O=C(NCc1ncn[nH]1)c1cc(-c2ccc(NS(=O)(=O)c3cccc(Cl)c3Cl)cc2)nc2[nH]ncc12 |
| 23 | 183 | – | CCOc1nc(-c2ccc(NS(=O)(=O)c3cc(Cl)ccc3F)cc2)nc2[nH]nc(C)c12 |
| – | – | 46.1 | Nc1n[nH]c2nc(-c3ccc(NS(=O)(=O)c4ccccc4Cl)cc3)ccc12 |
| < 1 | 327 | – | O=C(NCc1cocn1)c1cc(-c2ccc(NS(=O)(=O)c3cccc(Cl)c3Cl)cc2)nc2[nH]ncc12 |
| 2 | 1280 | – | O=C(c1cc(-c2ccc(NS(=O)(=O)c3cccc(Cl)c3Cl)cc2)nc2[nH]ncc12)N1CCNCC1 |
| 4 | 38 | – | CC(C)N1CC[C@H](NC(=O)c2cc(-c3ccc(NS(=O)(=O)c4cccc(Cl)c4Cl)cc3)nc3[nH]ncc23)C1 |
| 1 | 1 | – | Cc1n[nH]c2nc(-c3ccc(NS(=O)(=O)c4cc(Cl)ccc4F)cc3)nc(OCC3CN(C(C)C)C3)c12 |
| 3 | 4 | – | Cc1n[nH]c2nc(-c3ccc(NS(=O)(=O)c4cc(Cl)ccc4F)cc3)nc(OC3CC(C)(C)NC(C)(C)C3)c12 |
| 2 | 2 | – | Cc1n[nH]c2nc(-c3ccc(NS(=O)(=O)c4cc(Cl)ccc4F)cc3)nc(OCC3CNCCO3)c12 (centres undefined) |
| < 1 | 128 | – | O=C(NCc1ncc[nH]1)c1cc(-c2ccc(NS(=O)(=O)c3cccc(Cl)c3Cl)cc2)nc2[nH]ncc12 |

| IC50 [1] [nM] | IC50 [2] [nM] | Stability [3] [%] | Compound |
| --- | --- | --- | --- |
| < 1 | 21 | – | CN1CCC(NC(=O)c2cc(-c3ccc(NS(=O)(=O)c4cccc(Cl)c4Cl)cc3)nc3[nH]ncc23)C1 (racemic) |
| < 1 | < 1 | – | O=C(N[C@@H]1CCNC1)c1cc(-c2ccc(NS(=O)(=O)c3cccc(Cl)c3Cl)cc2)nc2[nH]ncc12 |
| < 1 | < 1 | – | CN1CC(NC(=O)c2cc(-c3ccc(NS(=O)(=O)c4cccc(Cl)c4Cl)cc3)nc3[nH]ncc23)C1 |
| – | – | 99.3 | Nc1n[nH]c2nc(-c3ccc(NS(=O)(=O)c4cc(Cl)ccc4F)cc3)ncc12 |
| 19 | 2470 | – | Nc1nc(CNC(=O)c2cc(-c3ccc(NS(=O)(=O)c4cccc(Cl)c4Cl)cc3)nc3[nH]ncc23)cs1 |
| 2 | 4 | – | CCN1CCC(Oc2nc(-c3ccc(NS(=O)(=O)c4cc(Cl)ccc4F)cc3)nc3[nH]nc(C)c23)CC1 |
| 1 | 2 | – | Cc1n[nH]c2nc(-c3ccc(NS(=O)(=O)c4cc(Cl)ccc4F)cc3)nc(OCC(CO)CO)c12 |
| – | 963 | – | O=C(NCc1cc[nH]n1)c1cc(-c2ccc(NS(=O)(=O)c3cccc(Cl)c3Cl)cc2)nc2[nH]ncc12 |
| – | – | 97.4 | Nc1n[nH]c2nc(-c3ccc(NS(=O)(=O)c4c(F)cc(F)cc4F)cc3)ccc12 |
| 5 | 14 | – | Cc1n[nH]c2nc(-c3ccc(NS(=O)(=O)c4cc(Cl)ccc4F)cc3)nc(OC3CCOCC3)c12 |
| 1 | 1 | – | Cc1n[nH]c2nc(-c3ccc(NS(=O)(=O)c4cc(Cl)ccc4F)cc3)nc(OC3CCCNC3)c12 (centres undefined) |
| – | – | 87.2 | Nc1n[nH]c2nc(-c3ccc(NS(=O)(=O)c4cccc(Cl)c4F)cc3)ccc12 |
| < 1 | < 1 | – | NCCNC(=O)c1cc(-c2ccc(NS(=O)(=O)c3cccc(Cl)c3Cl)cc2)nc2[nH]ncc12 |
| 2 | 10 | – | Cc1n[nH]c2nc(-c3ccc(NS(=O)(=O)c4cc(Cl)ccc4F)cc3)nc(OCCCO)c12 |
| 1 | 35 | – | O=C(NC1CCN(CC2CC2)C1)c1cc(-c2ccc(NS(=O)(=O)c3cccc(Cl)c3Cl)cc2)nc2[nH]ncc12 (racemic) |
| 1 | 1 | – | Cc1n[nH]c2nc(-c3ccc(NS(=O)(=O)c4cc(Cl)ccc4F)cc3)nc(OCC3(CN)COC3)c12 |
| 1 | 236 | – | NC(=O)c1cc(-c2ccc(NS(=O)(=O)c3cccc(Cl)c3Cl)cc2)nc2[nH]ncc12 |
| 2 | 3 | – | Cc1n[nH]c2nc(-c3ccc(NS(=O)(=O)c4cc(Cl)ccc4F)cc3)nc(OC3CC(C)(C)N(C)C(C)(C)C3)c12 |
| 15 | 438 | – | Cc1n[nH]c2nc(-c3ccc(NS(=O)(=O)c4cc(Cl)ccc4F)cc3)nc(OCCC(=O)N(C)C)c12 |

| IC50 [1] [nM] | IC50 [2] [nM] | Stability [3] [%] | Compound |
| --- | --- | --- | --- |
| 6 | < 1920 | – | CCNC(=O)c1cc(-c2ccc(NS(=O)(=O)c3cccc(Cl)c3Cl)cc2)nc2[nH]ncc12 |
| < 2 | < 2 | – | Cc1n[nH]c2nc(-c3ccc(NS(=O)(=O)c4cc(Cl)ccc4F)cc3)nc(OCCCN)c12 |
| 6 | – | – | CCN1CCCC(Oc2nc(-c3ccc(NS(=O)(=O)c4cc(Cl)ccc4F)cc3)nc3[nH]nc(C)c23)C1 (centres undefined) |
| 2 | 4 | – | Cc1n[nH]c2nc(-c3ccc(NS(=O)(=O)c4cc(Cl)ccc4F)cc3)nc(Oc3ccc(O)nc3)c12 |
| 3 | 609 | – | O=C(NCCn1cnnc1)c1cc(-c2ccc(NS(=O)(=O)c3cccc(Cl)c3Cl)cc2)nc2[nH]ncc12 |
| – | – | 91.7 | Nc1n[nH]c2nc(-c3ccc(NS(=O)(=O)c4cc(Cl)ccc4F)cc3)ccc12 |
| < 2 | < 2 | – | Cc1n[nH]c2nc(-c3ccc(NS(=O)(=O)c4cc(Cl)ccc4F)cc3)nc(OC3CCC(O)CC3)c12 (centres undefined) |
| 4 | 813 | – | O=C(NCc1nn[nH]n1)c1cc(-c2ccc(NS(=O)(=O)c3cccc(Cl)c3Cl)cc2)nc2[nH]ncc12 |
| 68 | 17600 | – | CC(C)NC(=O)c1cc(-c2ccc(NS(=O)(=O)c3cccc(Cl)c3Cl)cc2)nc2[nH]ncc12 |
| 10 | 246 | – | O=C(NCCc1cc[nH]n1)c1cc(-c2ccc(NS(=O)(=O)c3cccc(Cl)c3Cl)cc2)nc2[nH]ncc12 |
| 3 | 5 | – | Cc1n[nH]c2nc(-c3ccc(NS(=O)(=O)c4cc(Cl)ccc4F)cc3)nc(OCC(F)(F)CN)c12 |
| 14 | 45 | – | CN1CCC(CNC(=O)c2cc(-c3ccc(NS(=O)(=O)c4cccc(Cl)c4Cl)cc3)nc3[nH]ncc23)C1 (racemic) |
| 1 | 1 | – | Cc1n[nH]c2nc(-c3ccc(NS(=O)(=O)c4cc(Cl)ccc4F)cc3)nc(OC3CCNCC3F)c12 (centres undefined) |
| < 1 | 109 | – | CCN1CCC(CNC(=O)c2cc(-c3ccc(NS(=O)(=O)c4cccc(Cl)c4Cl)cc3)nc3[nH]ncc23)C1 (racemic) |
| 1 | 12 | – | O=C(NC1CCN(CCO)C1)c1cc(-c2ccc(NS(=O)(=O)c3cccc(Cl)c3Cl)cc2)nc2[nH]ncc12 (racemic) |
| 5 | 18 | – | Cc1n[nH]c2nc(-c3ccc(NS(=O)(=O)c4cc(Cl)ccc4F)cc3)nc(OC3CCC(=O)CC3)c12 |
| 4 | 929 | – | CNC(=O)c1cc(-c2ccc(NS(=O)(=O)c3cccc(Cl)c3Cl)cc2)nc2[nH]ncc12 |
| 1 | 1 | – | Cc1n[nH]c2nc(-c3ccc(NS(=O)(=O)c4cc(Cl)ccc4F)cc3)nc(OC3CCNCC3)c12 |
| – | – | 98.6 | Nc1n[nH]c2nc(-c3ccc(NS(=O)(=O)c4cc(Cl)c(F)cc4F)cc3)ncc12 |
